From patent US20140094413A1, “HEPATOCYTE GROWTH FACTOR (HGF) MIMICS AS THERAPEUTIC AGENTS” (WASHINGTON STATE UNIVERSITY, priority 2012, published 2014)
Entries after “also recorded” stand apart in the source; their conditions may differ. Where a SMILES comes first, the peptide text is derived from it. [ ]: non-standard residue; d: D form. The star is where a group is joined. Hexanoyl = CCCCCC(=O)*; Ahx = NCCCCCC(=O)O

Experiments:
c-Met = experiment: Augmentation of HGF-dependent c-Met phosphorylation in HEK293 cells; format: cell-based, human; details: HEK 293 cells treated with HGF+/−Dihexa
Procedure: (§1) augmentation of HGF-dependent c-Met phosphorylation in HEK293 cells, or 2) augmentation of HGF-dependent cell scattering in MDCK cells. All the compounds in Family one were tested using the c-Met phosphorylation assay. […]
Human embryonic kidney cells 293 (HEK293), Madin Darby canine kidney cells (MDCK), and B16F10 murine melanoma cells were grown in DMEM, 10% fetal bovine serum (FBS). Cells were grown to 90-100% confluency before use. For most but not all studies HEK and MDCK cells were serum starved for 24 hours prior to the initiation of drug treatment.
HEK293 cells were seeded in 6 well tissue culture plates and grown to 95% confluency in DMEM containing 10% FBS. The cells were serum deprived for 24 hours prior to the treatment to reduce the basal levels of phospho-Met. […] The lysate was clarified by centrifugation at 15,000 g for 15 minutes, protein concentrations were determined using the BCA total protein assay, and then appropriate volumes of the lysates were diluted with 2× reducing Laemmli buffer and heated for ten minutes at 95° C. […] Proteins were visualized using the Supersignal West Pico Chemiluminescent Substrate system (Pierce, Fenton, Mo.) and molecular weights determined by comparison to protein ladders (BenchMark, Invitrogen; and Kaleidoscope, BioRad). Images were digitized and analyzed using a UVP phosphoimager.

MDCK cells = experiment: Augmentation of HGF-dependent cell scattering in MDCK cells; format: cell-based, canine; details: with HGF, Dihexa 10^−10 M to 10^−14M, four days
Procedure: as §1
MDCK cells were grown to 100% confluency on the coverslips in six-well plates and washed twice with PBS. The confluent coverslips were then aseptically transferred to new six well plates containing 900 μl serum free DMEM. Norleual, Hinge peptide, and/or HGF (2.5 ng/ml) were added to appropriate wells. Control wells received PBS vehicle. […] Media was removed and cells were fixed with methanol. Cells were stained with Diff-Quik Wright-Giemsa (Dade-Behring, Newark, Del.) and digital images were taken. Coverslips were removed with forceps and more digital images were captured. Pixel quantification of images was achieved using Image J and statistics were performed using Prism 5 and InStat v.3.05.
MDCK cells were grown to 100% confluency on the coverslips in six-well plates and washed twice with PBS. The confluent coverslips were then aseptically transferred to new six well plates containing 900 μl serum free DMEM. Norleual, Hinge peptide, and/or HGF (20 ng/ml) were added to appropriate wells. Control wells received PBS vehicle. […] Pixel quantification of images was achieved using Image J and statistics were performed using Prism 5 and InStat v.3.05.

rats = experiment: Morris water maze with i.c.v. Dihexa and HGF antagonist Hinge; format: in vivo, rat; details: scopolamine treated rats
[1] = system: Dissociated hippocampal neurons; experiment: Neuroprotection from growth factor deprivation; format: cell-based; details: starved 72 hrs +/−HGF 5 ng/ml; Dihexa 10^−10 M and 10^−8M
Procedure: FIG. 39. […] Dissociated hippocampal neurons were starved for 72 hrs+/−HGF at sub-threshold concentrations 5 ng/ml and or Dihexa at 2 different concentrations 10^−10 M and 10^−8M. (**p<0.001,***p<0.0001; Mean+/−SEM).

[2] = system: Dissociated hippocampal neurons; experiment: Neuroprotection from oxidative stress (H2O2); format: cell-based; details: 100 μM H2O2 24 hrs +/−HGF 5 ng/ml; Dihexa 10^−10 M and 10^−8M
Procedure: FIG. 40. […] Dissociated hippocampal neurons were treated with 100 μM H2O2 for 24 hrs+/−HGF at sub-threshold concentrations 5 ng/ml and or Dihexa at 2 different concentrations 10^−10 M and 10^−8M. (*p<0.05,**p<0.01).

6-OHDA lesioned rats = experiment: Unilateral 6-OHDA substantia nigra lesion model; format: in vivo, rat
Procedure: FIG. 41. Dihexa restores performance in the rope hang test. Two weeks after producing a unilateral lesion with 6-OHDA in the substantia nigra, rats were treated with either 0.5 mg/kg of Dihexa or equivalent volumes of the vehicle ip.
FIG. 42A-C. Dihexa restored normal walking in the gait analysis test. Two weeks after producing a unilateral lesion with 6-OHDA in the substantia nigra, rats were treated with either 0.5 mg/kg of Dihexa or equivalent volumes of the vehicle ip. […] A, animal foot prints; B, left stride length; C, right stride length. Note that the dragging of the left hind leg observed in the untreated lesioned rats was absent from the treated group.
FIG. 43. Dihexa restores tyrosine hyroxlase staining, which is indicative of the presence of dopaminiergic neurons in the substantia nigra (SN). Two weeks after the induction of an unilateral 6-OHDA lesion, rats were treated with either 0.5 mg/kg Dihexa or an equivalent volume of vehicle ip. for 34 days.

[3] = system: CA1 neurons in coronal slices of rat hippocampus; experiment: Hippocampal long-term potentiation with theta burst stimulation; format: cell-based; details: Dihexa 1 μM applied 10 minutes prior to TBS
Procedure: FIG. 45. Effect of Dihexa (Hex) on hippocampal long-term potentiation (LTP) generated with theta burst (TBS) stimulation. LTP was monitored at CA1 neurons in coronal slices of rat hippocampus. Dihexa (1 μM) was applied 10 minutes prior to TBS. 1N=4. Dihexa application augmented LTP.

[4] = Phase I metabolism of Dihexa; format: in vitro ADME
[5] = Toxicity observation during Dihexa studies; format: in vivo; details: studies lasting as long as 96 days
[6] = 0.5 mg/kg ip, started two weeks after lesion

## CCCCCC(=O)N[C@@H](Cc1ccc(O)cc1)C(=O)N[C@H](C(=O)NCCCCCC(N)=O)[C@@H](C)CC [Dihexa, N-hexanoic-Tyr-Ile-(6)-aminohexanoic amide] (Hexanoyl-Tyr-Ile-[Ahx]-NH2)
c-Met
  Effect on HGF activation (phosphorylation) of c-Met: dramatically augment the ability of HGF to activate c-Met; also recorded: work synergistically to activate c-Met; also recorded: enhances the activity of HGF shifting its concentration curve to the left
MDCK cells
  HGF-dependent MDCK cell scattering: stimulate MDCK cell scattering; also recorded: markedly stimulates cell scattering even at picomolar affinities
MDCK cells; listed as N-hexanoyl-Tyr-Ile-(6) aminohexamide
  HGF-dependent MDCK cell scattering: spectacularly augment HGF-dependent MDCK cell scattering
rats
  Mean latency to find the pedestal, day one: 115.2 s
  Mean latency to find the pedestal, final day (day 8): 62.3 s
  Mean latency to find the pedestal, fourth day: 63.0 s
[1]
  Protection of neurons from growth factor deprivation: protects neurons from growth factor deprivation
[2]
  Protection of neurons from oxidative stress: protects neurons from oxidative stress
6-OHDA lesioned rats; 0.5 mg/kg ip for 34 days / six weeks
  Tyrosine hydroxylase staining in the substantia nigra: dramatic restoration of tyrosine hydroxylase (TH) staining; also recorded: completely restored the tyrosine hydroxylase staining in the SN
6-OHDA lesioned rats; [6]
  Gait analysis, stride length: recovery of normal motor function; also recorded: completely restored the normal stride length
  Rope hang test performance: completely restores performance in the rope hang test; also recorded: completely restored the performance of the treated animals on the rope hang test
6-OHDA lesioned rats; three months of Dihexa treatment
  Recovery of SN TH staining: ~100%
[3]
  Long-term potentiation: enhances LTP; also recorded: augmented LTP
[4]
  Phase I metabolism: resistant to phase I metabolism; also recorded: undergoes little phase I metabolism
[5]
  Overt toxicity: no overt toxicity
